Results: ChEMBL document CHEMBL6153170 (J Med Chem, 2025)
≈ marks a conversion by molar mass, not a printed value. Calls of active or inactive are those of the source. No cut-off for these calls is given here.

Experiments:
B16-F10 [1] = assay: Upregulation of acetylated histone H3 protein level in mouse B16-F10 cells at 0.1 to 2 uM incubated for 12 hrs by Western blot analysis; assay type: functional, cell-based; conditions: dose 0.1-2 µM
Jurkat [2] = assay: Upregulation of acetylated histone H3 protein level in human Jurkat T cells at 0.1 to 2 uM incubated for 12 hrs by Western blot analysis; assay type: functional, cell-based; conditions: dose 0.1-2 µM
[3] = biological target: T1, Protein deacetylase HDAC6 (Mus musculus) (UniProt Q9Z2V5); assay: In vivo inhibition of HDAC6 in C57BL/6 mouse model implanted with mouse B16-F10 cells assessed as increase in acetylated alpha-tubulin protein level in tumor at 20 mg/kg/day, ip administered for 14 days by Western blot analysis; assay type: functional, organism-based; conditions: time 14.0 day
T1 sequence (whole entry): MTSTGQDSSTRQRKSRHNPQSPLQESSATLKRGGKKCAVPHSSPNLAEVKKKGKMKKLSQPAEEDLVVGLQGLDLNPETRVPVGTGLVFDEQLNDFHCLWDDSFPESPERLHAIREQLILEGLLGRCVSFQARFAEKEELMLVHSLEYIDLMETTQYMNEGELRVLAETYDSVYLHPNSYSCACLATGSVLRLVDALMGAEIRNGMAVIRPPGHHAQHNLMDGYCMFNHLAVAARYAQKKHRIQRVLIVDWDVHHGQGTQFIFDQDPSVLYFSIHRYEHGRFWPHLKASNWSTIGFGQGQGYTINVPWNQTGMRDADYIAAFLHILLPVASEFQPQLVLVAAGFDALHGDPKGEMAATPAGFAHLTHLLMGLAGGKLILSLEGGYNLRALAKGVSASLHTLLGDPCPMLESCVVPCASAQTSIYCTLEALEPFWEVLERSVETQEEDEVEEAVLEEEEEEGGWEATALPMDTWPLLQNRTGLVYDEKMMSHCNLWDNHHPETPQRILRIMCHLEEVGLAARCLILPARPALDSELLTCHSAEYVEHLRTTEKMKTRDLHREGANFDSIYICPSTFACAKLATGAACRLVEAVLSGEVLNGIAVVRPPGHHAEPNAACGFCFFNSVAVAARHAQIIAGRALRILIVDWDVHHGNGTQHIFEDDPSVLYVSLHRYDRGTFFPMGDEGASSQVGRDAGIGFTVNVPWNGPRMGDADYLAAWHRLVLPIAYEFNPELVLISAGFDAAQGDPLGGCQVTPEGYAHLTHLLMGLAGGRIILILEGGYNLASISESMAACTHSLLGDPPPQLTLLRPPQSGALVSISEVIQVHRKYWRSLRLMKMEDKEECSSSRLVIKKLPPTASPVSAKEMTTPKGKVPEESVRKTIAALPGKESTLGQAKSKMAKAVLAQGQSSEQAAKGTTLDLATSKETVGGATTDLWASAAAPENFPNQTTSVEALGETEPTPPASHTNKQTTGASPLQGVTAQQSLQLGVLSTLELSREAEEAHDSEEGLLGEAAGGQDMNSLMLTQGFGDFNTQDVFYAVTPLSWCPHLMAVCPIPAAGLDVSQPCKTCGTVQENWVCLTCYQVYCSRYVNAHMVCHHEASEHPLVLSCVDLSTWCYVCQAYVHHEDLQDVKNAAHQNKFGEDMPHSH

B16-F10 [4] = assay: Antitumor immunity activity against mouse B16-F10 cells implanted in C57BL/6 mouse model assessed as CD3+ CD4+ T cell percentage in tumor at 20 mg/kg/day, ip administered for 14 days by flow cytometric analysis (reference value: 0.095 %); assay type: functional; conditions: time 14 day
[5] = In vivo inhibition of PD-L1 in C57BL/6 mouse model implanted with mouse B16-F10 cells assessed as reduction in PD-L1 protein expression in tumor at 20 mg/kg/day, ip administered for 14 days by Western blot analysis relative to control; assay type: functional; conditions: C57BL/6, B16-F10, 336 h, time 14 day
B16-F10 [6] = assay: Antitumor immunity activity against mouse B16-F10 cells implanted in C57BL/6 mouse model assessed as CD3+ CD8+ T cell percentage in tumor at 20 mg/kg/day, ip administered for 14 days by flow cytometric analysis (reference value: 0.52 %); assay type: functional; conditions: time 14 day
B16-F10 [7] = assay: Antitumor activity against mouse B16-F10 cells implanted in C57BL/6 mouse model assessed as tumor growth inhibition at 20 mg/kg/day, ip administered for 14 days relative to control; assay type: functional; conditions: B16-F10, 336 h, time 14 day, read-out: TGI
Jurkat [8] = assay: cells; conditions: Homo sapiens, 72 h
Histone deacetylase 1 = Histone deacetylase 1 (Homo sapiens, UniProt Q13547); assay: Inhibition of recombinant full-length human HDAC1 (1 to 482 residues) extracted from baculovirus expression system using Ac-Leu-Gly-Lys (Ac)-AMC as substrate preincubated for 5 mins followed by substrate addition and measured after 30 mins by fluorescence microplate reader analysis
[9] = biological target: Programmed cell death protein 1/Programmed cell death 1 ligand 1 (Homo sapiens, UniProt Q9NZQ7); assay: Inhibition of PD-1/PD-L1 (unknown origin) protein-protein interaction by HTRF assay; assay type: protein-complex assay
Histone deacetylase 7 = biological target: T2, Histone deacetylase 7 (Homo sapiens, UniProt Q8WUI4); assay: Inhibition of N-terminal GST-tagged recombinant human HDAC7 (501 to 952 residues) extracted from baculovirus expression system using Ac-Leu-Gly-Lys (Tfa)-AMC as substrate preincubated for 5 mins followed by substrate addition and measured after 30 mins by fluorescence microplate reader analysis
T2 sequence (Q8WUI4 whole entry): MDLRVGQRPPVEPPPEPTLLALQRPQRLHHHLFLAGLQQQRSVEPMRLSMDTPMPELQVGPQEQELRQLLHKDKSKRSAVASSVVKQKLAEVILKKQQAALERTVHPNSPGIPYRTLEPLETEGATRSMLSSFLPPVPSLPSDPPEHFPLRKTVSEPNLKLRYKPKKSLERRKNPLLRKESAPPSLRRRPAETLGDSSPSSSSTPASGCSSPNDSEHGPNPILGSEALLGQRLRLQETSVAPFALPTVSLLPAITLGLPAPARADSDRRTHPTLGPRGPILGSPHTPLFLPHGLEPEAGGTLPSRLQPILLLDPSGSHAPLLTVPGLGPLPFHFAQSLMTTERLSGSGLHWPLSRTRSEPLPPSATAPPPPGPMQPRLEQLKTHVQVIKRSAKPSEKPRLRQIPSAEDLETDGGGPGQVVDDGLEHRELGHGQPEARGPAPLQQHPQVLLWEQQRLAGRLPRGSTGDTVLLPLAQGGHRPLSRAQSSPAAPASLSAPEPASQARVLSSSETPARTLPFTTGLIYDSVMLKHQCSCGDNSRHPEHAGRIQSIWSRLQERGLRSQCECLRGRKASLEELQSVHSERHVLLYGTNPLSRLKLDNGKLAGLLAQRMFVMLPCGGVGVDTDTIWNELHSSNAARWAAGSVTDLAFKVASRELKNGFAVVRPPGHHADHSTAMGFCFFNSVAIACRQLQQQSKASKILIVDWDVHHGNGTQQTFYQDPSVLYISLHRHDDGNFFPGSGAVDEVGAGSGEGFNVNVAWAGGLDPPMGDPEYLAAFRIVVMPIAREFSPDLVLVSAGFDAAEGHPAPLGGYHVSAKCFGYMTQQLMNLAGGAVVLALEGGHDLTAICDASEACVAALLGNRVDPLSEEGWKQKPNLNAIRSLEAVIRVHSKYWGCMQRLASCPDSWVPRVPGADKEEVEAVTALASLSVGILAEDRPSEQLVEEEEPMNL

Histone deacetylase 8 = biological target: T3, Histone deacetylase 8 (Homo sapiens, UniProt Q9BY41); assay: Inhibition of C-terminal His-tagged recombinant full length human HDAC8 extracted from baculovirus infected Sf9 insect cells preincubated for 5 mins followed by substrate addition and measured after 30 mins by fluorescence microplate reader analysis
T3 sequence (Q9BY41 whole entry): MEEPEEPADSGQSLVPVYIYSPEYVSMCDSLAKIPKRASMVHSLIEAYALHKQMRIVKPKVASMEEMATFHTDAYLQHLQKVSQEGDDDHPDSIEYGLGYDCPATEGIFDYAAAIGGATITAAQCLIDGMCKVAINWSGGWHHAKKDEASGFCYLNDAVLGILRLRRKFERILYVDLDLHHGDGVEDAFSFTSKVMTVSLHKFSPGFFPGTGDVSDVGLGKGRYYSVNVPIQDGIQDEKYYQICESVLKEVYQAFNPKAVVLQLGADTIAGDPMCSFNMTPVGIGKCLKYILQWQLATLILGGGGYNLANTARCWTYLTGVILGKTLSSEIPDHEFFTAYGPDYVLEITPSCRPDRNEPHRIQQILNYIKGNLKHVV

MCF7 = assay: cells; conditions: Homo sapiens, MCF7, 48 h
B16-F10 [10] = assay: cells; conditions: Mus musculus, B16-F10, 48 h
HepG2 = assay: cells; conditions: Homo sapiens, HepG2, 48 h
Jurkat [11] = assay: Effect on HDAC6 protein level in human Jurkat T cells at 0.1 to 2 uM incubated for 12 hrs by Western blot analysis; assay type: functional, cell-based; conditions: dose 0.1-2 µM
B16-F10 [12] = assay: Effect on HDAC6 protein level in mouse B16-F10 cells at 0.1 to 2 uM incubated for 12 hrs by Western blot analysis; assay type: functional, cell-based; conditions: dose 0.1-2 µM
B16-F10 [13] = assay: Downregulation of PD-L1 expression level in mouse B16-F10 cells at 0.1 to 2 uM incubated for 24 hrs by Western blot analysis; assay type: functional, cell-based; conditions: dose 0.1-2 µM
B16-F10 [14] = assay: Downregulation of p-STAT3 expression level in mouse B16-F10 cells at 0.1 to 2 uM incubated for 24 hrs by Western blot analysis; assay type: functional, cell-based; conditions: dose 0.1-2 µM
[15] = biological target: T1, Protein deacetylase HDAC6 (Mus musculus); assay: Inhibition of HDAC6 in mouse B16-F10 cells assessed as increase in acetylated alpha-tubulin level incubated for 12 hrs by Western blot analysis; assay type: cell-based; conditions: dose 0.1-2 µM
B16-F10 [16] = assay: Effect on STAT3 expression level in mouse B16-F10 cells at 0.1 to 2 uM incubated for 24 hrs by Western blot analysis; assay type: functional, cell-based; conditions: dose 0.1-2 µM
[17] = Aqueous solubility of compound incubated for 24 hrs by miniaturized shake flask based HPLC analysis; assay type: physicochemical; conditions: buffer

Chain of Programmed cell death protein 1/Programmed cell death 1 ligand 1 (Q15116 whole entry, the tested form may be a part): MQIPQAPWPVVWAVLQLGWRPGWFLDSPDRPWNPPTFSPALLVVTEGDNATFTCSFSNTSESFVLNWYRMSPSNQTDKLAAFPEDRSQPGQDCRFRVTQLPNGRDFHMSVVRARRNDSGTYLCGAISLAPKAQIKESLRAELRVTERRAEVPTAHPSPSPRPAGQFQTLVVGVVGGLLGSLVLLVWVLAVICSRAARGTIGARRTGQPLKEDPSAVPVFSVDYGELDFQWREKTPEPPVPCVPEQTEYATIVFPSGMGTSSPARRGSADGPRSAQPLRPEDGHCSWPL
Chain of Programmed cell death protein 1/Programmed cell death 1 ligand 1 (Q9NZQ7 whole entry, the tested form may be a part): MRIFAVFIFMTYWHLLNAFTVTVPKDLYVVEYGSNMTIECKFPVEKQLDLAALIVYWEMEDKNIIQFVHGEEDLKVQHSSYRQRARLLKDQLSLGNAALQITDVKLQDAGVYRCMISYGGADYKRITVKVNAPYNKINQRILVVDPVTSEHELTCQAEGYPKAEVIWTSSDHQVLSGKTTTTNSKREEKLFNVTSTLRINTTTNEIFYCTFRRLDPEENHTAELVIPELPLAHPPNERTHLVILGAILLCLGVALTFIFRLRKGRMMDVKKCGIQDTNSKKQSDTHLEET
Chain of Histone deacetylase 1 (Q13547 whole entry, the tested form may be a part): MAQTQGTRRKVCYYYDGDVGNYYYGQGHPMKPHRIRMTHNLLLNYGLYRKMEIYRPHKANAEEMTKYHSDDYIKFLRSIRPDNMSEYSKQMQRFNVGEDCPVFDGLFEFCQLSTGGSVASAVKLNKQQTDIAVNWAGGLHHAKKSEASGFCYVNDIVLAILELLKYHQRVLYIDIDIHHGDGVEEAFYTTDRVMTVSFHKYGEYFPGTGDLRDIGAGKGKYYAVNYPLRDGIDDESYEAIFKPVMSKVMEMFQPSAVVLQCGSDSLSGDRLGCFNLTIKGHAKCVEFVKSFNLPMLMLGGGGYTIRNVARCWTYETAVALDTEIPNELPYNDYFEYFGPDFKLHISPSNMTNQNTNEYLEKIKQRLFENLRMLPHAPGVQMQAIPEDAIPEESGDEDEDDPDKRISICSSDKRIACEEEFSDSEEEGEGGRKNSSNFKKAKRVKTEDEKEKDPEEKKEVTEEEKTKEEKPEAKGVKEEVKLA

Row | inhibition [3] | IC50 (Jurkat [8]) [µM] | IC50 (Histone deacetylase 7) [µM] | IC50 (Histone deacetylase 8) [µM] | IC50 (MCF7) [µM] | IC50 (B16-F10 [10]) [µM] | IC50 (HepG2) [µM] | SMILES | Activity (B16-F10 [4]) [%] | inhibition in vivo at 20 mg/kg/day [5] [%] | Activity (B16-F10 [6]) [%] | inhibition in vivo at 20 mg/kg/day (B16-F10 [7]) [%] | IC50 [9] [µM] | other results
1 |  |  |  |  |  |  |  | O=C(CCCCCCC(=O)Nc1ccccc1)NO |  |  |  |  |  | Activity (B16-F10 [1]): Active; Activity (Jurkat [2]): Active
2 | inactive |  |  |  |  |  |  | Cc1c(COc2cc(OCc3cccc(C#N)c3)c(CNC(C)(C)C(=O)O)cc2Cl)cccc1-c1ccccc1 | 3.41 | ~50 | 4.99 | 43.2 |  | 
3 |  | > 10 | > 100 | > 10 | > 10 | > 10 | 9.7 | COc1nc(OCc2cccc(-c3ccccc3)c2C)ccc1CNCCCCC(=O)NO |  |  |  |  | 0.1 | IC50 (Histone deacetylase 1): > 10 µM
4 | Active | 6.7 |  |  | 8.3 | > 10 | 7.9 | O=C(CCCCCCNC(=O)c1cnc(N(c2ccccc2)c2ccccc2)nc1)NO [RICOLINOSTAT] | 2.62 | ~30 | 1.04 | 45.6 |  | Activity (Jurkat [11]): inactive; Activity (B16-F10 [12]): inactive; Activity (B16-F10 [13]): Active; Activity (B16-F10 [14]): Active; inhibition [15]: Dose-dependent-effect; Activity (B16-F10 [16]): inactive
5 |  |  |  |  |  |  |  | COc1nc(OCc2cccc(-c3ccccc3)c2C)ccc1CNCCNC(C)=O |  |  |  |  |  | solubility thermodynamic at 24 h [17]: 38.3 µg/mL (≈ 91.3 µM)
6 |  | > 10 | > 100 | > 10 | > 10 | > 10 | 9.7 | COc1nc(-c2cccc(-c3ccccc3)c2C)ccc1CNCCCCC(=O)NO |  |  |  |  | 0.0792 | 
